Source: patent publication US8828966B2, “Method for treatment of macular degeneration by modulating P2Y12 or P2X7 receptors” (priority 2006, dated 2014)

Assays:
ABCA4−/− mice [1] = experiment: Oral P2Y12 inhibitor in ABCA4-/- mice, lysosomal pH of RPE cells; format: in vivo, mouse; settings: 20 month old mice, 12 ug/ml in the water for 19 days
Procedure: In this example the selected P2Y12 inhibitor was clopidogrel (commercially available as Plavix), but the invention need not be so limited, and other P2Y12 inhibitors, such as AR-C66096, may be used. The clopidogrel was given orally at 50 mg/kg and the pH measured from RPE cells that were removed 4 hrs later.

ABCA4−/− mice [2] = experiment: Oral ticagrelor in ABCA4-/- mice, RPE autofluorescence; format: in vivo, mouse; settings: 26 month old mice, 12 ug/ml in the water for 4 days, excited with 406 nm laser
From the text: Finally, as recorded in the photographic images of FIG. 12F, autofluorescence in untreated ABCA4−/− mice (upper, Con)) were compared with those treated with Brilinta (lower, Bri) in the water.

ARPE-19 cells [3] = experiment: Lysosomal pH (pHL) with LysoSensor Yellow/Blue, high through-put screen; format: cell-based, human; settings: for effect on pHL of cells treated with tamoxifen: tamoxifen concentration not stated, A68930 and A77636 at 1 μM; for effect on pHL, agent alone: cells without other alkalinizing agent, NH4Cl 10 mM, BAF 200 nM, CHQ 20 μM, CFTR-172 10 μM, LDL 10 μg/ml, others not given
Procedure: Lysosensor Yellow/Blue co-localized with the Lysotracker Red dye in small vesicles, with a distribution consistent with lysosomal origin. Measurements of pHL were performed using a high throughput screening (HTS) protocol to maximize output and minimize variation using ARPE-19 cells in 96 well plates. […] Loading for 5 min. at 23° C. with 5 μM lysosensor, followed by 15 min. for internalization, produced stable and reproducible results.
The ratio was converted to pH by calibrating with KCl buffered to pH 4.0-6.0 in the presence of monensin and nigericin. Calibration indicated a baseline pH of 4.4 to 4.5, supporting lysosomal localization. […] NH4Cl decreased the ratios slightly at 380 nm. Nevertheless, absent the addition of the dye, none of these compounds, or any others, altered the fluorescent signal at 340 or 380 nm, showing a specificity of the measured change to pHL. […] This quantification is necessary to predict the potential effectiveness of acidifying drugs to restore lysosomal enzyme activity.
Extensive trials determined that the optimal response is obtained with 5 minute dye loading and 15 minute post-incubation. […] All reagents were from Sigma Chemical Corp. unless otherwise indicated.
In general, each condition below used 3-12 independent wells per plate, in 3-6 separate plates. As levels from individual plates varied, data was normalized to the mean pHL for control wells from each plate. Fluorescent ratios were converted to pH following calibration performed on each plate as described. Incubation with Lysosensor Yellow/Blue was kept constant and all measurements were performed 15 min after removal of dye from the bath to ensure continuity. Significance was determined with a one-way ANOVA and Tukey post test. Drugs were always tested on control cells to ensure modification of healthy RPE cells was minimal, and cells were not exposed to dye to make sure effects were specific. All background was subtracted from the fluorescence excited at 340 and 380 nm independently before calculation of the ratio.

[4] = tested on: RPE cells from ABCA4−/− mice; experiment: Lysosomal pH in fresh RPE cells from ABCA4-/- mice, drug added to the cells; format: cell-based, mouse; settings: RPE cells from 11-month-old ABCA4−/− mice
From the text: Measurement of pHL from Isolated Mouse Cells: Based on protocols that are used extensively to measure Ca2^+ from retinal ganglion cells (Zhang et al. Invest. Ophthalmol. Vis. Sci. 46:2183-2191 (2005)), cells were fixed on coverslips and mounted on Nikon Eclipse inverted microscope, visualized with a x40 oil-immersion fluorescence objective, and perfused with control solution. The field was alternatively excited at 340 nm and 380 nm, and fluorescence >515 emitted from the region of interest surrounding individual cells is measured with a CCD camera and Imagemaster software (Photon Technologies International, Inc). After baseline levels were recorded for 3-5 minutes in the absence of dye, solution was replaced with 5 μM Lysosensor Yellow/Blue dye for 5 minutes before washing for an additional 15 minutes. The ratios in the control solutions were recorded, and then acidifying drugs were added. Ratios were converted to pH with monensin/nigericin as above.
As a result, lysosomal pH increases early, and is measured in ABCA4^−/− mice at 6, 12 and 18 weeks from RPE cells within 5 hours of sacrifice. […] However, the signal/noise from measurements of isolated cells with the plate reader is not acceptable. Instead, this signal is measured using the microscope-based imaging system, previously used successfully to measure Ca2^+ from freshly isolated retinal ganglion cells (Zhang et al., supra, 2005). […]

[5] = tested on: primate model of the disease; settings: delivered orally; cited from earlier work
[6] = NH4Cl 10 mM
Procedure: Isolation of Lysosomes: ARPE-19 cells were detached with 0.25% trypsin, centrifuged at 1000 rpm for 5 minutes, and resuspended in 0.25M sucrose with 5 mM ATP in 10 mM Tris buffer (pH 7.4 with HCl). After homogenization, samples were spun at 1000×g (10 min). The supernatant was centrifuged (20,000×g, 10 min) and the pellet was resuspended in a 0.25 M sucrose buffer with 8 mM CaCl2 in Tris-HCl buffer (pH 7.4) to lyse mitochondria (15 min, 35° C.). […] After isolation, lysosomes were diluted 1:10 in a 150 mM KCl solution in Tris-HCl (pH 7.4) and pelleted at 25,000×g. The pellet was then resuspended in 5 μM Lysosensor dye. Cells were washed 2× by centrifugation (25,000×g, 15 min), resuspended in test or control solutions including 5 mM MgATP, plated into a 96 well plate (50 μl/well) and the pH was measured as above.

cAMP in the RPE = experiment: Effect of ATP on cAMP in the RPE; format: cell-based
Procedure: P2Y11 Receptor: The initial investigation screened agonists that act at multiple P2 receptors for their effect on pHL using the high through-put assay. BzATP, ATP, ATPγS, ADPγS and 2 MeSATP and AR-C67085 were added at 10, 30, 100 and 300 μM, respectively, and relative actions were compared with published information for the human P2Y11 receptor (von Kugelgen et al, supra, 2000; Communi et al., supra, 1997; Communi et al., Br. J. Pharmacol. 128:1199-206 (1999)). ATP was added in the presence of ecto-ATPase/eNPP inhibitors βγmATP and ARL67156 (100 μM) since they prevent degradation of ATP in these cells. Receptor involvement was confirmed with antagonists suramin, reactive blue 2 and pyridoxal-phosphate-6-azophenyl-2′,4′-disulphonic acid (PPADS; all at 0.1, 1, 10 and 100 μM). Since the finding that ATP had the ability to elevate cAMP in the RPE was novel, the effect of ATP on cAMP was measured directly using the cAMP-Screen Direct Chemiluminescent Immunoassay System kit from Applied Biosystems using an HTS luminometer to measure […]. The role of cAMP was confirmed by inhibiting pKA with 100 μM Rp-8-Br-cAMPS.

ARPE-19 cells [7] = experiment: FACS analysis of autofluorescence (excited at 488 nm); format: cell-based, human; settings: photoreceptor outer segments plus 10 μM chloroquine, 7 days
From the text: To maintain a balance between the synthesis, degradation, and subsequent recycling of cellular products there are a variety of autophagic responses, but all involve degradation of intracellular components via the lysosome. Typically, autophagy involves the formation of a membrane around a targeted region of the cell, separating the contents from the rest of the cytoplasm, and then the resultant vesicle fuses with a lysosome and the contents are subsequently degraded.

other P2 receptors = settings: cited from earlier work
ARPE-19 cells [8] = experiment: Toxicity of A2E to cultured cells; format: cell-based, human; settings: A2E 100 nM, over a period of 1-2 weeks
Procedure: Holz and colleagues previously reported A2E responses, but the increase in pHL required four weeks of feeding the cells with A2E (14 nM) every 3-4 days, and the A2E was complexed to low-density lipoprotein (LDL; 10 μg/ml) (Holz et al., supra, 1999). […] To reduce the lengthy time course, higher concentrations of A2E (100 nM) were tested, but the cells were killed over a period of 1-2 weeks. Therefore, alternative methods were needed to permit timely testing of the effect of pH on lysosomal activity in the RPE cells.

[9] = tested on: LC3BII and p62 in ARPE-19 cells; experiment: Western blot of autophagy markers; format: cell-based, human; settings: Western blot quantification
From the text: While the RPE cells must degrade phagocytosed outer segments, they must also degrade and dispose of their own waste material through a process termed autophagy. The ability of P2X7 receptor stimulation to rapidly raise levels of autophagy markers LC3BII and p62 are consistent with the effects of raising lysosomal pH, for they imply that lysosomal alkalinization prevents the RPE cell from degrading material from autopagic vesicles containing p62 or tagged with LC3BII. (See, Kabeya, Y., et al., “LC3, a mammalian homolog of yeast Apg8p, is localized in autophagosome membranes after processing.” EMBO J., 22:[…] (2003); Moscat, J. and Diaz-Meco, M. T. (2009) “p62 at the Crossroads of Autophagy, Apoptosis, and Cancer,” Cell 137:1001-1004 (2009)).

[10] = tested on: Cathepsin-D activity in ARPE-19 cells; experiment: Cathepsin-D activity monitored with a fluorescent reporter; format: cell-based, human; settings: addition of BzATP
From the text: In FIG. 13C, it is shown that BzATP reduced lysosomal enzyme activity. […] Cathepsin D is the major lysosomal protease responsible for degrading photoreceptors in the RPE, and thus changes to cathepsin D activity reflect the ability of the lysosomes to successfully degrade (dispose of) phagocytosed outer segments. […] Consequently, by applying exogenous antagonists to the P2X7 and P2Y12 receptors (i.e., P2X7 receptor-antagonist, and/or P2Y12 receptor-antagonist), the resulting pH elevation by endogenously released ATP is inhibited or prevented, thereby enhancing degradation of the metabolic waste by the lysosomes, reducing autofluorescent lipofuscin accumulation, and thus reducing the onset or progression of AMD.

CCCSc1nc(N[C@@H]2C[C@H]2c2ccc(F)c(F)c2)c2nnn([C@@H]3C[C@H](OCCO)[C@@H](O)[C@H]3O)c2n1 [ticagrelor]
lysosomal pH of RPE cells (ratio of pH sensor) after drug in the water (ABCA4−/− mice [1]): reduced lysosomal pH of RPE cells | autofluorescence in RPE cells (ABCA4−/− mice [2]): decreased autofluorescence

NC[C@@H]1O[C@H](C23CC4CC(CC(C4)C2)C3)Cc2c1ccc(O)c2O [A77636]
effect on pHL of cells treated with tamoxifen (ARPE-19 cells [3]): decreased lysosomal pH | effect on pHL (ratio 340 to 380 nm) [4]: decreased pHL | Parkinsonian activity [5]: reduces Parkinsonian activity

NC[C@@H]1O[C@H](c2ccccc2)Cc2c1ccc(O)c2O [A68930]
effect on pHL of cells treated with tamoxifen (ARPE-19 cells [3]): decreased lysosomal pH | effect on pHL (ratio 340 to 380 nm) [4]: decreased pHL

Cl.N [NH4Cl]
effect on pHL, agent alone (ARPE-19 cells [3]): pH was elevated | 340/380 ratio in isolated lysosomes [6]: increased the 340/380 ratio

Nc1ncnc2c1ncn2[C@@H]1O[C@H](COP(=O)(O)OP(=O)(O)OP(=O)(O)O)[C@@H](O)[C@H]1O [ATP]
effect on lysosomal pH, conditions not stated (ARPE-19 cells [3]): acidify lysosomes | effect on cAMP in the RPE (cAMP in the RPE): elevate cAMP

Cl.Clc1cccc(-c2nnnn2Cc2cccnc2)c1Cl [A438079, 3-[[5-(2,3-Dichlorophenyl)-1H-tetrazol-1-yl]methyl]pyridine hydrochloride salt]
effect on pHL rise by P2X7 agonist BzATP (ARPE-19 cells [3]; cells stimulated with BzATP): prevented this rise | effect on autofluorescence enhanced by POS+CHQ (ARPE-19 cells [7]): reduced this enhanced autofluorescence | activity at other P2 receptors (other P2 receptors): devoid of activity at other P2 receptors

CC(C=CC1=C(C)CCCC1(C)C)=CC=CC(C)=Cc1cc(C=CC=C(C)C=CC2=C(C)CCCC2(C)C)cc[n+]1CCO [A2E, N-retinylidene-N-retinylethanolamine]
increase in pHL (ARPE-19 cells [3]; ARPE-19 cells, A2E (14 nM) fed for 4 weeks): 0.4 units | cell killing (ARPE-19 cells [8]): killed

BzATP
effect on pHL, agent alone (ARPE-19 cells [3]): elevation of the lysosomal pHL | LC3BII level [9]: rapid increases | p62 level [9]: rapid increases | Cathepsin-D activity [10]: visibly decreased
